Measured values published in US20260286363A1, “COMPOSITIONS AND METHODS FOR DIAGNOSING, TREATING, AND PREVENTING LYSOSOMAL STORAGE DISEASES” (Wylder Nation Foundation, priority 2022, published 2026).
Like-named read-outs stand apart in the source and are kept apart here.

Legend:
cultured wt neurons [1] = experiment: Cell viability MTT assay in cultured wt neurons; assay type: cell-based, mouse; conditions: for neuronal death upon SM16:0 addition in the presence of acid and neutral sphingomyelinase inhibitors (MTT): wt neurons, SM16:0 plus desipramine or GW4869
Description: Cell viability was evaluated using the MTT (methylthiazolyldiphenyltetrazoliumbromide, Sigma) assay. Briefly, 3×10^4 neurons were plated in 96-well plates coated with poly-L-lysine (0.1 mg/ml). At DIV14 1 mM MTT was added to the wells and incubated for 4 h. Then, the supernatant was discarded, and […] DMSO was added to the wells. The absorbance was measured at 570 nm using a microplate reader (FLUOstar Optima, BMG Labtech). Cells treated with DMSO were used as a control.

wt neurons = conditions: cultured neurons
Description: To assess reactive oxygen species (ROS), cultured neurons were incubated for 20 min with dihydrorhodamine 123 (10 μM, DHR: Molecular Probes, Carlsbad, CA, USA). The fluorescence product of DHR, rhodamine-123, was detected at excitation and emission wavelengths of 500 and 536 nm, respectively. Images of cultured neurons were captured on a confocal microscope (LSM710; Zeiss).
Since high levels of SM also can induce oxidative stress, reactive oxygen species (ROS) was evaluated by dihydrorhodamine 123 (DHR) staining in wt neurons incubated with the different SM species.

[2] = tested on: wt primary cultured neurons; conditions: not told
Description: Lysotracker Red DND99 (Thermo Fisher Scientific) was added to wt primary cultured neurons at 1 μM and incubated for 20 min at 37° C. Cells were then fixed in 4% PFA and mounted using Prolong Gold Antifade (Invitrogen). Images were taken on a confocal LSM710 microscope (Zeiss).
To investigate the effect of the different SM species in these organelles, several lysosomal-related parameters were measured. To analyze lysosomal permeabilization, the lysotracker red dye, which fluoresces in acidic environments was utilized.

ASM = target: T1, ASM (Mus musculus, UniProt Q04519); experiment: Enzymatic assay of SMb or SM16:0 metabolized by ASM activity; assay type: biochemical; conditions: fluorescence per nmol metabolized, slope analysis
T1 sequence (Q04519 45-627): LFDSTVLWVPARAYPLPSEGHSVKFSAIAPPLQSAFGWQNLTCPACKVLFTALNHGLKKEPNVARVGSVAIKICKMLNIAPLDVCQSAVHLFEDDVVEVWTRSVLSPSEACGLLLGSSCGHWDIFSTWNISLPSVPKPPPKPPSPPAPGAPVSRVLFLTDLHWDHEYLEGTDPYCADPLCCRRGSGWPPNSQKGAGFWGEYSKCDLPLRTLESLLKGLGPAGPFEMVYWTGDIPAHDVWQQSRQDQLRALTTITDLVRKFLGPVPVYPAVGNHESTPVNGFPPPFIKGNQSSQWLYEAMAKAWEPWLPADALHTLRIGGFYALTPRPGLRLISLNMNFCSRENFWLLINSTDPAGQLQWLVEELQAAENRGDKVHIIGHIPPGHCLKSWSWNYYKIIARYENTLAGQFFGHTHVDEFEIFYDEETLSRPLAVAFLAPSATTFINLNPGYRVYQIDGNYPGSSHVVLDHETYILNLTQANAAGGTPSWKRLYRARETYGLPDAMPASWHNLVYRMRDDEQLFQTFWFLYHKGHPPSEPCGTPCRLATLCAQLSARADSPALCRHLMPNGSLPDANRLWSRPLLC
Description: SM levels were measured according to protocols modified from (Hojati and Jiang, 2006). Lipid extracts were dried in the presence of Thesit, and SM was converted into peroxide by incubation with sphingomyelinase (Smase C from Merck; #S9396 or ASM from Sino Biological; #50749-M08B), alkaline phosphatase, and choline oxidase. Peroxide was measured fluorimetrically in the presence of peroxidase and homovanillic acid (Van Veldhoven et al., 1997).

cultured wt neurons [3] = experiment: pSM16:0 co-localization with subcellular markers (Mander's coefficient); assay type: cell-based, mouse
Description: Cultured neurons at 14 DIV were fixed in 4% PFA 0.12M sucrose and incubated overnight with primary antibodies and subsequently for 1 h with Alexa 488- or Alexa 555-conjugated secondary antibodies. Images were taken using a confocal microscope LSM710 (Zeiss). The Mander's coefficient for pSM 16:0 co-localization with Thy1; PSD95; TOM20; EEA1; LAMP1; GM130 was determined by using the JACOP plugin. Mouse brains were dissected, fixed in 4% PFA 0.12M sucrose, and cryoprotected for 24 h in 30% sucrose phosphate buffer saline. The tissue was then frozen in Tissue-Tek optimal cutting temperature compound (Sakura Finetek, Torrance, CA, USA), and 40-μm sagittal sections were obtained with a cryostat (CM 1950 Ag Protect freezing: Leica, Solms, Germany). The sections were incubated overnight at 4° C. with the primary antibodies and then with the corresponding Alexa-conjugated secondary antibodies. Finally, the sections were incubated for 10 min with DAPI (Merck), washed, and mounted with ProLong Gold Antifade (Thermo Fisher). Images were obtained on a confocal LSM710 microscope (Zeiss) and quantified using the Fiji software.
Cultured neurons were treated with 40 μM propargyl SM (pSM 16:0) (Merck; #860711P) for 48 hours at DIV12. After immunofluorescence protocol, explained above, click reaction was performed for the attachment of fluorescent reporter (Sulfo-Cy3-Azide; Jena Biosciences; #CLK-AZ119-1) to pSM 16:0.
The surprising effects of SM16:0 on lysosomes compared to other SM species supported a hypothesis that this lipid targets these organelles. To explore this possibility, we took advantage of the existence of the analogue propargyl SM16:0 (pSM16:0), which is linked to an alkyne group and can be traced by click chemistry and fluorescence microscopy. We added pSM16:0 for 48 hours to cultured wt neurons and performed double immunofluorescence with markers of different cellular compartments.

cultured wt neurons [4] = experiment: LAMP1 surface staining in non-permeabilized neurons (lysosomal exocytosis); assay type: cell-based, mouse
Description: ASMko and wt cultured neurons at 14DIV were washed with PBS and fixed with 2% PFA in PBS and 0.12 M sucrose for 8 min. Immunofluorescence was performed using a conventional protocol in the absence of detergent to avoid cell permeabilization.

[5] = tested on: Cortical neurons from wt mice; experiment: LC/MS quantification of SM in cultured wt neurons incubated with SM species; assay type: cell-based, mouse; conditions: for increase of total SM levels: wt cortical neurons cultured 48 hr with 40 μM; for relative abundance of the added SM species, of the total SM: wt cortical neurons, 48 hr, 40 μM
Description: Sample analysis was performed in an Acquity ultraperformance liquid chromatography (UPLC) system (Waters, USA) connected to a time-of-flight (TOF; LCT Premier XE) detector controlled with Waters/Micromass MassLynx software.
A study was done to determine the impact of the different increments of individual SM species in ASMko mice and cells on their specific accumulation in neurons. Cortical neurons from wt mice were cultured for 48 hr with 40 μM of either total SM from bovine brain (SMb, containing similar SM species proportions than total SM from mouse brain); or individual SM16:0; SM18:0 or SM24:1. […] LC/MS quantification assessed the effect of each treatment on the relative abundance of the added SM species. Incubation with SM16:0 and SM18:0 drastically raised the relative abundance of each of these species to 88% and 82% of the total (FIG. 2B). Incubation with SM24:1 increased the prevalence of this species to 30%, while addition of SMb reduced the relative abundance of SM18:0 and SM16:0 by 4% and 15%, respectively, while increased that of SM24:1 by 8% (FIG. 2B).

ASM knock-out mice = experiment: Lipidomic analysis of brain, liver and plasma of ASM knock-out mice after i.p. rhASM; assay type: in vivo, mouse
Description: Mouse brain and liver samples were homogenized in water (1 g wet tissue/4 mL). SM was extracted from 50 μL of homogenate or 50 μL of plasma in the presence of SM (17:0) as internal standard using Bligh-Dyer lipid extraction (Bligh and Dyer, 1959). Sample analysis was performed in a Shimadzu 20AD HPLC system coupled to a 6500QTRAP+ mass spectrometer (AB Sciex, Framingham, MA) operated in positive multiple reaction monitoring mode. Data processing was conducted with Analyst 1.6.3 (AB Sciex). Data were reported as the peak area ratios of the analytes in sample to the internal standard.
To identify potential biomarkers of brain pathology in ASMD subjects a study was conducted in ASM knock-out mice. In brief, ASM knock-out mice received an i.p. injection of rhASM at 1 mg/kg every other day for 14 days. Results were compared to previous lipidomic analysis done on WT/ASMko mice at 2, 4, and 6 months.
Lipidomic analysis were completed on the brain, liver, and plasma of the treated mice. Analyzed lipids comprised: SM, LSM, SM OH, and m/z 805 (a phosphocholine compound). Total SM levels post i.p. rhASM injection are shown in FIG. 13A and below at Table 3.

[6] = 48 hours, wt neurons, Mander's coefficient
[7] = Liver, i.p. 1 mg/kg every other day for 14 days
[8] = Plasma, i.p. 1 mg/kg every other day for 14 days

Cl.Cl.O=C(/C=C/c1ccc(/C=C/C(=O)Nc2ccc(C3=NCCN3)cc2)cc1)Nc1ccc(C2=NCCN2)cc1 [GW4869]
neuronal death upon SM16:0 addition in the presence of acid and neutral sphingomyelinase inhibitors (MTT) (cultured wt neurons [1]): not prevented

CCCCCCCCCCCCC/C=C/[C@@H](O)[C@@H](N)COP(=O)([O-])OCC[N+](C)(C)C [LysoSM, lyso-sphingomyelin]
deleterious effects on cultured neurons (MTT viability) (cultured wt neurons [1]; addition to cultured neurons): did not find deleterious effects

CCCCCCCCCCCCC/C=C/[C@@H](O)[C@H](COP(=O)([O-])OCC[N+](C)(C)C)NC(=O)CCCCCCCCCCCCCCC [SM16:0, sphingomyelin 16:0]
elevation in ROS levels (DHR staining) (wt neurons): 1.6 fold
lysosomal permeabilization (change of Lysotracker staining from dotty to diffuse cytosolic pattern) [2]: indicative of lysosomal permeabilization
reduction of neuronal survival / cell death (MTT) (cultured wt neurons [1]; mouse, cultured neurons): 50%
neuronal death upon SM16:0 addition in the presence of acid and neutral sphingomyelinase inhibitors (MTT) (cultured wt neurons [1]): induces cell death
substrate preference of ASM (SM16:0 vs SMb) (ASM): ASM has a preference to degrade SM16:0
accumulation in lysosomes (pSM16:0 colocalization with Lamp1) (cultured wt neurons [3]; wt neurons treated with ASM inhibitor desipramine): accumulates in lysosomes
lysosomal exocytosis (surface staining of LAMP1) (cultured wt neurons [4]): induced lysosomal exocytosis
increase of total SM levels [5]: 6.6 fold
relative abundance of the added SM species, of the total SM [5]: 88%

CCCCCCCCCCCCC/C=C/[C@@H](O)[C@H](COP(=O)([O-])OCC[N+](C)(C)C)NC(=O)CCCCCCCCCCCCCCCCC [SM18:0, sphingomyelin 18:0]
reduction of neuronal survival / cell death (MTT) (cultured wt neurons [1]; mouse, cultured neurons): 25%
increase of total SM levels [5]: 3.5 fold
relative abundance of the added SM species, of the total SM [5]: 82%

propargyl SM16:0 [pSM16:0]
co-localization with early endosome marker EEA1 (cultured wt neurons [3]; [6]): low degree of co-localization
co-localization with mitochondrial marker TOM20 (cultured wt neurons [3]; [6]): low degree of co-localization
co-localization with plasma membrane marker Thy-1 (cultured wt neurons [3]; [6]): low degree of co-localization
co-localization with synaptic marker PSD95 (cultured wt neurons [3]; [6]): low degree of co-localization
colocalization with Golgi apparatus marker GM130 (cultured wt neurons [3]; [6]): high colocalization
colocalization with endolysosomal marker LAMP1 (cultured wt neurons [3]; [6]): high colocalization

sphingomyelin 24:1 [SM24:1]
reduction of neuronal survival / cell death (MTT) (cultured wt neurons [1]): no deleterious effects
increase of total SM levels [5]: not significant
relative abundance of the added SM species, of the total SM [5]: 30%

B1: rhASM: recombinant human acid sphingomyelinase (protein, UniProt P17405 47-631, looked up)
Sphingomyelin …: LALSDSRVLWAPAEAHPLSPQGHPARLHRIVPRLRDVFGWGNLTCPICKGLFTAINLGLKKEPNVARVGSVAIKLCNLLKIAPPAVCQSIVHLFEDDMVEVWRRSVLSPSEACGLLLGSTCGHWDIFSSWNISLPTVPKPPPKPPSPPAPGAPVSRILFLTDLHWDHDYLEGTDPDCADPLCCRRGSGLPPASRPGAGYWGEYSKCDLPLRTLESLLSGLGPAGPFDMVYWTGDIPAHDVWHQTRQDQLRALTTVTALVRKFLGPVPVYPAVGNHESTPVNSFPPPFIEGNHSSRWLYEAMAKAWEPWLPAEALRTLRIGGFYALSPYPGLRLISLNMNFCSRENFWLLINSTDPAGQLQWLVGELQAAEDRGDKVHIIGHIPPGHCLKSWSWNYYRIVARYENTLAAQFFGHTHVDEFEVFYDEETLSRPLAVAFLAPSATTYIGLNPGYRVYQIDGNYSGSSHVVLDHETYILNLTQANIPGAIPHWQLLYRARETYGLPNTLPTAWHNLVYRMRGDMQLFQTFWFLYHKGHPPSEPCGTPCRLATLCAQLSARADSPALCRHLMPDGSLPEAQSLWPRPLFC
SM 16:0 level decrease after i.p. rhASM injection (ASM knock-out mice; Brain): does not change
Total LSM levels, % Decrease with rhASM injection (ASM knock-out mice; Brain, i.p. 1 mg/kg every other day for 14 days): does not change
SM 16:0 level decrease after i.p. rhASM injection (ASM knock-out mice; Liver): 15%
Total SM levels, % Decrease with rhASM injection (ASM knock-out mice; [7]): 22%
Total m/z 805 levels, % Decrease with rhASM injection (ASM knock-out mice; [7]): 70%
SM 16:0 level decrease after i.p. rhASM injection (ASM knock-out mice; Plasma): 35%
Total LSM levels, % Decrease with rhASM injection (ASM knock-out mice; [8]): 70%
Total SM levels, % Decrease with rhASM injection (ASM knock-out mice; [8]): 31%
SM OH levels after i.p. rhASM injection (ASM knock-out mice; brain, liver, plasma): reduction in all samples tested
m/z 805 levels after rhASM injections, across tissues (ASM knock-out mice; brain, liver, plasma): decreases only in the liver
